Assay results from PubChem BioAssay (NCI).
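The compound was tested at five concentrations on cells cultured in 96-well plates, with a 48-hour exposure period. Definition used: TGI = concentration required for complete inhibition of growth.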

Legend:
Test in all cases: inhibition of tumour cell growth, NCI panel, 48 h
[1] = tested on: 786-0 renal
[2] = tested on: A498 renal
[3] = tested on: A549 NSCLC
[4] = tested on: ACHN renal
[5] = tested on: BT-549 breast
[6] = tested on: CAKI-1 renal
[7] = tested on: CCRF-CEM leukemia
[8] = tested on: COLO 205 colon
[9] = tested on: DU-145 prostate
[10] = tested on: EKVX NSCLC
[11] = tested on: HCC-2998 colon
[12] = tested on: HCT-116 colon
[13] = tested on: HCT-15 colon
[14] = tested on: HL-60(TB) leukemia
[15] = tested on: HOP-62 NSCLC
[16] = tested on: HS 578T breast
[17] = tested on: HT29 colon
[18] = tested on: IGROV1 ovarian
[19] = tested on: K-562 leukemia
[20] = tested on: KM12 colon
[21] = tested on: LOX IMVI melanoma
[22] = tested on: M14 melanoma
[23] = tested on: MCF7 breast
[24] = tested on: MDA-MB-435
[25] = tested on: MDA-N
[26] = tested on: MOLT-4 leukemia
[27] = tested on: NCI-H226 lung
[28] = tested on: NCI-H23 lung
[29] = tested on: NCI-H460 lung
[30] = tested on: NCI-H522 lung
[31] = tested on: NCI/ADR-RES ovarian
[32] = tested on: OVCAR-3 ovarian
[33] = tested on: OVCAR-4 ovarian
[34] = tested on: OVCAR-5 ovarian
[35] = tested on: PC-3 prostate
[36] = tested on: RPMI-8226 leukemia
[37] = tested on: RXF 393 renal
[38] = tested on: SF-268 CNS
[39] = tested on: SF-295 CNS
[40] = tested on: SF-539 CNS
[41] = tested on: SK-MEL-2 melanoma
[42] = tested on: SK-MEL-28 melanoma
[43] = tested on: SK-MEL-5 melanoma
[44] = tested on: SK-OV-3 ovarian
[45] = tested on: SN12C renal
[46] = tested on: SNB-19 CNS
[47] = tested on: SR leukemia
[48] = tested on: SW-620 colon
[49] = tested on: T-47D breast
[50] = tested on: TK-10 renal
[51] = tested on: U251 CNS
[52] = tested on: UACC-257 melanoma
[53] = tested on: UACC-62 melanoma
[54] = tested on: UO-31 renal
[55] = tested on: HOP-92 NSCLC
[56] = tested on: MALME-3M melanoma
[57] = tested on: MDA-MB-231 breast
[58] = tested on: OVCAR-8 ovarian
[59] = tested on: SNB-75 CNS

Measured: TGI

COc1ccc(CNC(=O)[C@H](Cc2ccc(O)cn2)NC(C)=O)cc1
not listed: [55] | [56] | [57] | [58] | [59]
> 100 µM: all other assays above

COc1ccc2c(c1)C(N)=C(Cc1ccncc1)C2=O
not listed: [11] | [27] | [34] | [47]
> 100 µM: all other assays above
